Legend:
barnyardgrass [1] = experiment: Test A preemergence; format: in vivo, Echinochloa crus-galli; conditions: 0 to 100 scale (0 no effect, 100 complete control)
Method in brief: (§1)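 For preemergence, seeds were sown in a loam soil-sand blend and given a directed soil spray of test chemical in a non-phytotoxic solvent mixture with surfactant. For postemergence, plants in pots of the same blend were sprayed with the same formulation at the one- to two-leaf stage, 2 to 10 cm tall.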

barnyardgrass [2] = experiment: Test C postemergence; format: in vivo, Echinochloa crus-galli
Method in brief: (§2)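 Preemergence: seeds sown in loam soil–sand blend and treated with test chemicals formulated in a non-phytotoxic solvent mixture containing a surfactant. Postemergence: plants grown in peat moss/vermiculite-based medium and sprayed with the same formulation at 2 to 18 cm height (1- to 4-leaf stage).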

galium = experiment: Test C postemergence; format: in vivo, Galium aparine
Method in brief: as §2

pigweed [3] = experiment: Test C postemergence; format: in vivo, Amaranthus retroflexus
Method in brief: as §2

pigweed [4] = experiment: Test A postemergence; format: in vivo, Amaranthus retroflexus; conditions: 0 to 100 scale (0 no effect, 100 complete control), approx. 10 d
Method in brief: as §1

wheat = experiment: Test A postemergence; format: in vivo, Triticum aestivum; conditions: 0 to 100 scale (0 no effect, 100 complete control), approx. 10 d
Method in brief: as §1

crabgrass, large = experiment: Test C postemergence; format: in vivo, Digitaria sanguinalis
Method in brief: as §2

waterhemp = experiment: Test C postemergence; format: in vivo, Amaranthus rudis
Method in brief: as §2

lambsquarters = experiment: Test C postemergence; format: in vivo, Chenopodium album
Method in brief: as §2

oilseed rape = experiment: Test C postemergence; format: in vivo, Brassica napus
Method in brief: as §2

barnyardgrass [5] = experiment: Test B flooded paddy test; format: in vivo, Echinochloa crus-galli; conditions: 250 g ai/ha, applied to paddy water at 2-leaf stage, visual rating after 13 to 15 d, scale 0 (no effect) to 100 (complete control)
Method in brief: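 Pots were flooded to 3 cm above the soil at treatment, and compounds were applied directly into the paddy water. That depth was held throughout. After 13 to 15 d in a greenhouse, plants were rated visually against untreated controls.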

velvetleaf = experiment: Test C postemergence; format: in vivo, Abutilon theophrasti
Method in brief: as §2

foxtail, giant [6] = experiment: Test C postemergence; format: in vivo, Setaria faberii
Method in brief: as §2

blackgrass = experiment: Test C postemergence; format: in vivo, Alopecurus myosuroides
Method in brief: as §2

foxtail, giant [7] = experiment: Test A postemergence; format: in vivo, Setaria faberii; conditions: 0 to 100 scale (0 no effect, 100 complete control), approx. 10 d
Method in brief: as §1

ragweed = experiment: Test C postemergence; format: in vivo, Ambrosia elatior
Method in brief: as §2

johnsongrass = experiment: Test C postemergence; format: in vivo, Sorghum halepense
Method in brief: as §2

kochia = experiment: Test C postemergence; format: in vivo, Kochia scoparia
Method in brief: as §2

corn = experiment: Test C postemergence; format: in vivo, Zea mays
Method in brief: as §2

Which results are given for `CCCOc1nc(-c2ccccc2)nn1Cc1ccnc(C(F)(F)F)c1` [Compound 33]?
Plant response rating, Barnyardgrass (barnyardgrass [1]; 125 g ai/ha): 50; Plant response rating, Barnyardgrass (barnyardgrass [1]; 500 g ai/ha, approx. 10 d): 80; Plant response rating (scale of 0 to 100 where 0 is no effect and 100 is complete control) (barnyardgrass [2]; 31 g ai/ha): 10; Plant response rating (scale of 0 to 100 where 0 is no effect and 100 is complete control) (barnyardgrass [2]; 62 g ai/ha): 20; Plant response rating (scale of 0 to 100 where 0 is no effect and 100 is complete control) (barnyardgrass [2]; 125 g ai/ha): 20; Plant response rating (scale of 0 to 100 where 0 is no effect and 100 is complete control) (barnyardgrass [2]; 250 g ai/ha): 25; Plant response rating (scale of 0 to 100 where 0 is no effect and 100 is complete control) (galium; 31 g ai/ha): 55; Plant response rating (scale of 0 to 100 where 0 is no effect and 100 is complete control) (galium; 62 g ai/ha): 60; Plant response rating (scale of 0 to 100 where 0 is no effect and 100 is complete control) (galium; 125 g ai/ha): 75; Plant response rating (scale of 0 to 100 where 0 is no effect and 100 is complete control) (galium; 250 g ai/ha): 80; Plant response rating (scale of 0 to 100 where 0 is no effect and 100 is complete control) (pigweed [3]; 31 g ai/ha): 95; Plant response rating (scale of 0 to 100 where 0 is no effect and 100 is complete control) (pigweed [3]; 62 g ai/ha): 90; Plant response rating (scale of 0 to 100 where 0 is no effect and 100 is complete control) (pigweed [3]; 125 g ai/ha): 98; Plant response rating (scale of 0 to 100 where 0 is no effect and 100 is complete control) (pigweed [3]; 250 g ai/ha): 98; Plant response rating, Pigweed (pigweed [4]; 125 g ai/ha): 100; Plant response rating, Pigweed (pigweed [4]; 500 g ai/ha): 100; Plant response rating, Wheat (wheat; 125 g ai/ha): 0; Plant response rating, Wheat (wheat; 500 g ai/ha): 30; Plant response rating (scale of 0 to 100 where 0 is no effect and 100 is complete control) (crabgrass, large; 31 g ai/ha): 5; Plant response rating (scale of 0 to 100 where 0 is no effect and 100 is complete control) (crabgrass, large; 62 g ai/ha): 10; Plant response rating (scale of 0 to 100 where 0 is no effect and 100 is complete control) (crabgrass, large; 125 g ai/ha): 10; Plant response rating (scale of 0 to 100 where 0 is no effect and 100 is complete control) (crabgrass, large; 250 g ai/ha): 15; Plant response rating (scale of 0 to 100 where 0 is no effect and 100 is complete control) (waterhemp; 31 g ai/ha): 80; Plant response rating (scale of 0 to 100 where 0 is no effect and 100 is complete control) (waterhemp; 62 g ai/ha): 95; Plant response rating (scale of 0 to 100 where 0 is no effect and 100 is complete control) (waterhemp; 125 g ai/ha): 95; Plant response rating (scale of 0 to 100 where 0 is no effect and 100 is complete control) (waterhemp; 250 g ai/ha): 95; Plant response rating (scale of 0 to 100 where 0 is no effect and 100 is complete control) (lambsquarters; 31 g ai/ha): 80; Plant response rating (scale of 0 to 100 where 0 is no effect and 100 is complete control) (lambsquarters; 62 g ai/ha): 85; Plant response rating (scale of 0 to 100 where 0 is no effect and 100 is complete control) (lambsquarters; 125 g ai/ha): 85; Plant response rating (scale of 0 to 100 where 0 is no effect and 100 is complete control) (lambsquarters; 250 g ai/ha): 90; Plant response rating (scale of 0 to 100 where 0 is no effect and 100 is complete control) (oilseed rape; Oilsee Rape, 250 g ai/ha): 60; Plant response rating (scale of 0 to 100 where 0 is no effect and 100 is complete control) (oilseed rape; Oilseed Rape, 31 g ai/ha): 40; Plant response rating (scale of 0 to 100 where 0 is no effect and 100 is complete control) (oilseed rape; Oilseed Rape, 62 g ai/ha): 55; Plant response rating (scale of 0 to 100 where 0 is no effect and 100 is complete control) (oilseed rape; Oilseed Rape, 125 g ai/ha): 80; Plant response rating, Barnyardgrass, Flood (barnyardgrass [5]): 0; Plant response rating (scale of 0 to 100 where 0 is no effect and 100 is complete control) (velvetleaf; 31 g ai/ha): 15; Plant response rating (scale of 0 to 100 where 0 is no effect and 100 is complete control) (velvetleaf; 62 g ai/ha): 15; Plant response rating (scale of 0 to 100 where 0 is no effect and 100 is complete control) (velvetleaf; 125 g ai/ha): 10; Plant response rating (scale of 0 to 100 where 0 is no effect and 100 is complete control) (velvetleaf; 250 g ai/ha): 40; Plant response rating (scale of 0 to 100 where 0 is no effect and 100 is complete control) (foxtail, giant [6]; 31 g ai/ha): 10; Plant response rating (scale of 0 to 100 where 0 is no effect and 100 is complete control) (foxtail, giant [6]; 62 g ai/ha): 10; Plant response rating (scale of 0 to 100 where 0 is no effect and 100 is complete control) (foxtail, giant [6]; 125 g ai/ha): 15; Plant response rating (scale of 0 to 100 where 0 is no effect and 100 is complete control) (foxtail, giant [6]; 250 g ai/ha): 15; Plant response rating (scale of 0 to 100 where 0 is no effect and 100 is complete control) (blackgrass; 31 g ai/ha): 5; Plant response rating (scale of 0 to 100 where 0 is no effect and 100 is complete control) (blackgrass; 62 g ai/ha): 5; Plant response rating (scale of 0 to 100 where 0 is no effect and 100 is complete control) (blackgrass; 125 g ai/ha): 10; Plant response rating (scale of 0 to 100 where 0 is no effect and 100 is complete control) (blackgrass; 250 g ai/ha): 10; Plant response rating, Foxtail, Giant (foxtail, giant [7]; 125 g ai/ha): 40; Plant response rating, Foxtail, Giant (foxtail, giant [7]; 500 g ai/ha): 90; Plant response rating (scale of 0 to 100 where 0 is no effect and 100 is complete control) (ragweed; 31 g ai/ha): 35; Plant response rating (scale of 0 to 100 where 0 is no effect and 100 is complete control) (ragweed; 62 g ai/ha): 35; Plant response rating (scale of 0 to 100 where 0 is no effect and 100 is complete control) (ragweed; 125 g ai/ha): 40; Plant response rating (scale of 0 to 100 where 0 is no effect and 100 is complete control) (ragweed; 250 g ai/ha): 75; Plant response rating (scale of 0 to 100 where 0 is no effect and 100 is complete control) (johnsongrass; 31 g ai/ha): 5; Plant response rating (scale of 0 to 100 where 0 is no effect and 100 is complete control) (johnsongrass; 62 g ai/ha): 5; Plant response rating (scale of 0 to 100 where 0 is no effect and 100 is complete control) (johnsongrass; 125 g ai/ha): 10; Plant response rating (scale of 0 to 100 where 0 is no effect and 100 is complete control) (johnsongrass; 250 g ai/ha): 15; Plant response rating (scale of 0 to 100 where 0 is no effect and 100 is complete control) (kochia; 31 g ai/ha): 90; Plant response rating (scale of 0 to 100 where 0 is no effect and 100 is complete control) (kochia; 62 g ai/ha): 90; Plant response rating (scale of 0 to 100 where 0 is no effect and 100 is complete control) (kochia; 125 g ai/ha): 90; Plant response rating (scale of 0 to 100 where 0 is no effect and 100 is complete control) (kochia; 250 g ai/ha): 90; Plant response rating (scale of 0 to 100 where 0 is no effect and 100 is complete control) (corn; 31 g ai/ha): 25; Plant response rating (scale of 0 to 100 where 0 is no effect and 100 is complete control) (corn; 62 g ai/ha): 30; Plant response rating (scale of 0 to 100 where 0 is no effect and 100 is complete control) (corn; 125 g ai/ha): 25; Plant response rating (scale of 0 to 100 where 0 is no effect and 100 is complete control) (corn; 250 g ai/ha): 25

From patent US10681909B2, “Herbicidal triazoles” (FMC Corporation, priority 2014, dated 2020)
